# Measurements reported in patent US4977181A, “Tromethamine salt of 1-methyl-beta-oxo-alpha-(phenylcarbamoyl)-2-pyrrolepropionitrile” (priority 1989, dated 1990).
# Counter-ions that a name gives are not always drawn.
# Legend:
# [1] = system: Sprague-Dawley rats; assay: Acute Toxicity Study (single oral dose, mortality); format: in vivo, rat (Sprague-Dawley); settings: for Mortality, Female / Mortality, Male: single oral gavage, observed for 15 days; for Mortality, Female: female rats; for Mortality, Male: male rats
# Method: (§1) A single equimolar dose of each compound is administered orally by gavage as a 3% corn starch suspension to 5 female and 5 male Sprague-Dawley rats. The animals are there observed for 15 days.
# (§2) The comparative incidence of mortality for the free acid of formula I, the triethanolamine salt thereof and the tromethamine salt of formula II are as follows: […]
# [2] = antiinflammatory activity; format: in vivo; settings: in words
# Method: The compound can be administered to the animals either enterally, preferably orally, parenterally, e.g. subcutaneously or intravenously, or topically, for example, in the form of aqueous solutions or suspensions. The applied dosage may range between about 0.1 and 100 mg/kg/day, preferably between about 1 and 50 mg/kg/day. The tests include the classical in vivo assay methods for said activities, such as the carrageenin paw-edema, adjuvant arthritis tests in rats, and the canine synovitis test.
# [3] = system: cartilage matrix; assay: inhibition of cartilage matrix degradation; format: cell-based, bovine; settings: in words
# Method: The effect on cartilage matrix degradation can be determined in the cartilage-synovium co-culture model of matrix degradation which is carried out as follows:
# The proteoglycan matrix of bovine nasal septum cartilage is labeled in vitro by incorporation of ^35 S into glycosaminoglycan. Cartilage slices are incubated overnight in a sulfate-free medium containing ^35 S-sodium sulfate. ^35 S-Labeled cartilage slices are co-cultured with normal synovium explants in multiwell tissue culture plates. After 4 days incubation a 100 μl aliquot of medium is counted. Cartilage slices are hydrolyzed and a 100 μl aliquot of cartilage hydrolysate is counted. The percent ^35 S released into the medium is determined and the percent of inhibition of matrix degradation is calculated.
# [4] = system: cell-mediated immunity; assay: enhancement of depressed cell-mediated immunity; format: in vivo, rat; settings: in words
# Method: Immunopotentiating effects can be determined in BCG-immunized animals. In vitro, the enhancement of cell-mediated immunity is determined by measuring the increase in chemotaxis of macrophages isolated from BCG-immunized rats. In vivo, such is determined in the BCG-immunized adjuvant arthritic rat by measuring the effect on delayed hypersensitivity reaction essentially as described in Current Therapeutic Research 30, S34 (1981).
# [5] = tolerability at therapeutically effective doses; format: in vivo
# [6] = Acute Toxicity Study (single oral dose, mortality); format: in vivo, rat (Sprague-Dawley); settings: rat, in vivo, po, 2400 umol/kg, 2.4 millimoles/Kg p.o., rat, both sexes; read-out: mortality rate
# Method: as §1, §2
# [7] = 2.4 Millimoles/Kg, listed as II
# [8] = 3.6 Millimoles/Kg, listed as II
smiles,measurement,setting,value
"Cn1cccc1C(=O)C(C#N)C(=O)Nc1ccccc1 (stereo not drawn) [formula I, 1-methyl-beta-oxo-alpha-phenylcarbamoyl-2-pyrrolepropionitrile]","Mortality, Female",[1]; 1.2 Millimoles/Kg,0/5
same,"Mortality, Male",[1]; 1.2 Millimoles/Kg,0/5
same,"Mortality, Female","[1]; 2.4 Millimoles/Kg, listed as I",2/5
same,"Mortality, Male","[1]; 2.4 Millimoles/Kg, listed as I",2/5
same,mortality rate,"[1]; 2.4 millimoles/Kg p.o., rat, both sexes, 21600 min",40%
same,"Mortality, Female","[1]; 3.6 Millimoles/Kg, listed as I",4/5
same,"Mortality, Male","[1]; 3.6 Millimoles/Kg, listed as I",4/5
"Cn1cccc1C(=O)C(C#N)C(=O)Nc1ccccc1 (stereo not drawn) [formula II, 1-methyl-beta-oxo-alpha-(phenylcarbamoyl)-2-pyrrolepropionitrile (1:1) tromethamine salt]","Mortality, Female",[1]; [7],0/5
same,"Mortality, Male",[1]; [7],0/5
same,deaths (animals),"[1]; 2.4 millimoles/Kg p.o., rat, both sexes",0/10
same,"Mortality, Female",[1]; [8],5/5
same,"Mortality, Male",[1]; [8],5/5
same,acute toxicity compared with free acid of formula I or the triethanolamine salt,"[1]; rat, in words",less toxic than the free acid of formula I or the triethanolamine salt thereof
same,antiinflammatory activity,[2],displays antiinflammatory
same,inhibition of cartilage matrix degradation,[3],inhibition of cartilage matrix degradation
same,enhancement of depressed cell-mediated immunity,[4],enhancement of depressed cell-mediated immunity
same,tolerability,[5],well tolerated
same,undesirable side effects,[5],essentially free of undesirable side effects
"Cn1cccc1C(=O)C(C#N)C(=O)Nc1ccccc1 (stereo not drawn) [triethanolamine salt, triethanolamine salt of 1-methyl-beta-oxo-alpha-(phenylcarbamoyl)-2-propionitrile]",mortality at 360 h,[6],50%
same,"Mortality, Female",[1]; 2.4 Millimoles/Kg,3/5
same,"Mortality, Male",[1]; 2.4 Millimoles/Kg,2/5
same,"Mortality, Female",[1]; 3.6 Millimoles/Kg,5/5
same,"Mortality, Male",[1]; 3.6 Millimoles/Kg,5/5
